From US8110654B2, “T cell epitope peptides of ovarian cancer anti-idiotypic antibody 6B11 and use thereof” (Peking University People;s Hospital, priority 2006, dated 2012)

Legend:
HOC1A cells = assay: Cytokine ELISA of supernatant of CTLs co-incubated with HOC1A cells; format: cell-based; conditions: CTL:HOC1A 40:1, 48 hours, double-antibody-sandwich ELISA
Experimental: 6B11-CTLs, VH CDR3-CTLs and VL CDR3-CTLs were mixed with target HOC1A cells in the ratio of 40:1 respectively and co-incubated at 37° C. under 5% CO2 for 48 hours. The supernatant was harvested, and the contents of IL-2, IFN-γ and IL-4 determined by double-antibody-sandwich ELISA. […] VH CDR3 peptide- and VL CDR3 peptide-specific CTLs could also secrete high levels of IL-2 and IFN-γ while the secretion of IL-4 was in a low level, which was in a similar trend as that of the immune response induced by anti-idiotype antibody 6B11. This indicated from a different perspective that VH CDR3 peptide and VL CDR3 peptide were involved in the induction of T cell immune response derived from anti-idiotype antibody 6B11 (FIG. 13).

CD4 T cells = assay: BrdU cell proliferation assay after magnetic bead sorting of CD4 T cells; format: cell-based, human; conditions: reacting cells sorted for CD4 T cells by magnetic beads
Experimental: All the CDR peptides of anti-idiotype antibody 6B11 (6 peptides) were synthesized artificially. The peptides were screened for Th epitope peptides by cell proliferation assay. Anti-idiotype antibody 6B11-CTLs stimulated for one period were used as reacting cells. DCs loaded with anti-idiotype antibodies and peptides respectively were used as stimulating cells. The reacting cells and the stimulating cells (in the ratio of 10:1) were co-incubated at 37° C. under 5% CO2 for 120 hours and then subject to BrdU ELISA cell proliferation assay. Each well contained 100 μl AIM-V culture medium and 1×10^5 anti-idiotype antibody 6B11-CTLs. Within the last 2 hours during stimulation, 10 μl BrdU labeling solution was added into each well and the fluid in the wells was removed. The cells were dried at 60° C. for 1 hour. 200 μl of FixDenat solution was added into each well. The reaction continued for 30 minutes at 37° C. for fixing DNA in the lymphocytes. Finally, 100 μl BrdU monoclonal antibody was added into each well for 90 minutes. The absorption value at 450 nm was read by an automatic microplate reader after substrate chromogenic reaction for detecting the proliferation of the cells. The group of DCs without loading and the group of phytohaemagglutinin (PHA) were used as negative and positive control respectively. […] Other peptides could not stimulate the proliferation of the reacting cells.
For further analyzing the proliferation of the cells, stimulating cells were blocked by anti-human MHC class II antibodies, for evaluating the effect of Th epitope peptides. Firstly, the optimal application concentration of MHC class II antibodies was determined by experiments to be 1:20 dilution (FIG. 3). […] Other peptides could not trigger cell proliferation, no matter whether MHC class II antibodies were applied or not (FIG. 4). […] The reacting cells were subject to magnetic bead sorting of CD4 T cells.

[1] = test system: anti-idiotype antibody 6B11-CTLs (reacting cells); assay: BrdU ELISA cell proliferation assay, 6B11-CTLs stimulated by loaded DCs; format: cell-based, human; conditions: for proliferation after blocking by MHC class II antibodies: anti-human MHC class II antibodies 1:20 dilution; for proliferation of reacting cells 6B11-CTLs: stimulating DCs loaded with peptide 30 μg/ml or 6B11 40 μg/ml, 120 hours, BrdU, A450
Experimental: Peripheral blood was drawn from HLA-A2 healthy human subjects. After EDTA anti-coagulation treatment, peripheral blood monocytes were isolated using Ficoll lymphocyte isolation 1×10^7 monocytes/well and AIM-V culture medium (containing 5% human AB serum) was added to 1 ml. The cells were incubated at 37° C. under 5% CO2 for 2 hours. Non-adherent cells were drawn and removed as lymphocytes and stored in liquid nitrogen for further use. The adherent cells were monocytes.
The monocytes isolated from said 6-well plates were added with 2 ml AIM-V culture medium (containing 5% human AB serum)/well. Recombinant human granulocyte-macrophage colony-stimulating factor (rh GM-CSF) and recombinant human interleukin-4 (rh IL-4) were added simultaneously both to a final concentration of 1000 U/ml, for induced incubation. On Day 4, 1 ml AIM-V culture medium (containing 5% human AB serum) was supplemented, and rh GM-CSF and rh IL-4 of the same concentration as mentioned above were also supplemented. On Day 6, 1 ml AIM-V culture medium (containing 5% human AB serum) was supplemented again. At the same time, recombinant human tumor necrosis factor-α (rh TNF-α), recombinant human α-interferon (rh IFN-α) and recombinant human interleukin-6 (rh IL-6) were added, all to a final concentration of 1000 U/ml, and prostaglandin E2 (PGE2) was added to a final concentration of 1 μg/ml. Co-incubation lasted 24 hours for inducing mature DCs.
On Day 4 during incubation of DCs, the culture medium, rh GM-CSF and rh IL-4 were supplemented. At the same time, anti-idiotype antibody 6B11 was added to a final concentration of 40 μg/ml for loading. The loaded cells were stored as stimulating cells for further use.
Mature DCs induced were harvested, washed and adjusted to a concentration of 1×10^6 cells/ml. Six CDR peptides (SEQ ID NOs: 1-6, see Table 1, artificially synthesized) in a final concentration of 30 μg/ml respectively, or each peptide of 30 μg/ml together with keyhole limpet hemocyanin (KLH) of 5 μg/ml were added for loading. The loaded cells were stored as stimulating cells for further use.
The freeze-stored autologous lymphocytes were stimulated by DCs loaded with anti-idiotype antibody 6B11 (anti-Id DCs), to obtain CTLs specific to anti-idiotype antibody 6B11 (6B11-CTLs). One period consists of 7 days. On Day 3 of every period, 10 U/ml recombinant human interleukin-2 (rh IL-2) was supplemented. Finally, anti-idiotype antibody 6B11-CTLs were obtained after a one- or three-period stimulation.
All the CDR peptides of anti-idiotype antibody 6B11 (6 peptides) were synthesized artificially. The peptides were screened for Th epitope peptides by cell proliferation assay. Anti-idiotype antibody 6B11-CTLs stimulated for one period were used as reacting cells. DCs loaded with anti-idiotype antibodies and peptides respectively were used as stimulating cells. The reacting cells and the stimulating cells (in the ratio of 10:1) were co-incubated at 37° C. under 5% CO2 for 120 hours and then subject to BrdU ELISA cell proliferation assay. Each well contained 100 μl AIM-V culture medium and 1×10^5 anti-idiotype antibody 6B11-CTLs. Within the last 2 hours during stimulation, 10 μl BrdU labeling solution was added into each well and the fluid in the wells was removed. The cells were dried at 60° C. for 1 hour. 200 μl of FixDenat solution was added into each well. The reaction continued for 30 minutes at 37° C. for fixing DNA in the lymphocytes. Finally, 100 μl BrdU monoclonal antibody was added into each well for 90 minutes. The absorption value at 450 nm was read by an automatic microplate reader after substrate chromogenic reaction for detecting the proliferation of the cells. The group of DCs without loading and the group of phytohaemagglutinin (PHA) were used as negative and positive control respectively. […] Other peptides could not stimulate the proliferation of the reacting cells. […]

Row | Sequence | IFN-γ secretion by CTLs (HOC1A cells) | IL-2 secretion by CTLs (HOC1A cells) | IL-4 secretion by CTLs (HOC1A cells) | proliferation of sorted CD4 T cells (CD4 T cells) | proliferation after blocking by MHC class II antibodies [1] | proliferation of reacting cells 6B11-CTLs [1]
1 | IALITTKIAWYFDV (VH CDR3 region peptide) [VH CDR3 peptide] | high levels | high levels | low level | could trigger the proliferation | could be blocked mostly | could stimulate the proliferation
2 | SQSTHFPYT (VL CDR3 region peptide) | high levels | high levels | low level | could not trigger the proliferation | could not be blocked | could stimulate the proliferation
